Data as given in patent US20070249639A1, “Use of 9H-Purine-2,6-Diamine Derivatives in the Treatment of Proliferative Diseases and Novel 9H-Purine-2,6-Diamine Derivatives” (priority 2004, published 2007).

biological target: T1, human topoisomerase II α (Homo sapiens, UniProt P11388); assay: Topoisomerase II ATPase assay (Malachite Green); assay type: biochemical; settings: Percent inhibition @10 μM, Malachite Green assay; read-out: TOPO II inh. (inhibition of the TOPO ATPase activity)
T1 construct: purchased Professor Neil Osheroff (Vanderbilt University, Nashville, Tenn., USA)
T1 sequence (P11388 whole entry): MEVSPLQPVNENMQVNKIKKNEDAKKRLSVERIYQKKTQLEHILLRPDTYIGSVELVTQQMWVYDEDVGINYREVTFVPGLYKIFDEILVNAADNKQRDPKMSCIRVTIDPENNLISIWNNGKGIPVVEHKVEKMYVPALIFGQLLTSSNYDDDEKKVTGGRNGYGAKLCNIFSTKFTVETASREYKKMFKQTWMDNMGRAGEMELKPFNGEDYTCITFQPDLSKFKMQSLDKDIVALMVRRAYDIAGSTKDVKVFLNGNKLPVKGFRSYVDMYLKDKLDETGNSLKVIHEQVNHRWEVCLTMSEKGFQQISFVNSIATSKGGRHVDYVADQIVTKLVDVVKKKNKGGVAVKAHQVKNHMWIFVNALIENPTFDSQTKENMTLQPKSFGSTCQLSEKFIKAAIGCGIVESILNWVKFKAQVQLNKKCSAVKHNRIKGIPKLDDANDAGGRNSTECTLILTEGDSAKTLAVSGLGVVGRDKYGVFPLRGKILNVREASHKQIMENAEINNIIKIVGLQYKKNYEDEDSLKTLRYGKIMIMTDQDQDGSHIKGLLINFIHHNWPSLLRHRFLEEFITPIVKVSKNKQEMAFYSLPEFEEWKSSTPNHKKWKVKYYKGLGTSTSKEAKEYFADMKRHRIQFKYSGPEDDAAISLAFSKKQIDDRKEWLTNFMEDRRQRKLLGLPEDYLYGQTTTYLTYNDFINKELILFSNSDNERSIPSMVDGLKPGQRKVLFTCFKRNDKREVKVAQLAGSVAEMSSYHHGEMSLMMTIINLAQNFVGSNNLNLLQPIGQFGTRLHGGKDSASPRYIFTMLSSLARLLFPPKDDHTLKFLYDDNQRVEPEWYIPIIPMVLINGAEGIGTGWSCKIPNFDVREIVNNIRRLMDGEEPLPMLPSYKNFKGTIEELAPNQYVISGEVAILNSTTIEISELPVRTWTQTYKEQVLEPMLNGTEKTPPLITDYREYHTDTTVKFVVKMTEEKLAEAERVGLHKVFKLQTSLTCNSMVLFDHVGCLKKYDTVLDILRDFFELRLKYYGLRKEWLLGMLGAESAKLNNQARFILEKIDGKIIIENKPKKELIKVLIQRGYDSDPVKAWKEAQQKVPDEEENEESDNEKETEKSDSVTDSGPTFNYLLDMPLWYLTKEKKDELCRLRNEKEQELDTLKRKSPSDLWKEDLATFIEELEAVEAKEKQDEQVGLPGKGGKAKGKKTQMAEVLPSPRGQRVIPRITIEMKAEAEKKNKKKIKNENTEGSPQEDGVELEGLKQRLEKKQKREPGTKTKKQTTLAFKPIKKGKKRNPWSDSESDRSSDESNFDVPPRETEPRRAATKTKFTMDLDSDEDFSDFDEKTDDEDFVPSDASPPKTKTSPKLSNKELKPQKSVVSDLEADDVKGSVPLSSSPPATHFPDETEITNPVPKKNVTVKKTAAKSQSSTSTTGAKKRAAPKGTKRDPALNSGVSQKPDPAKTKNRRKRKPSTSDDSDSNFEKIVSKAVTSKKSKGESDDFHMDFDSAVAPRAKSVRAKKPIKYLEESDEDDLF
Description: The inhibition of topoisomerase II is measured as follows:
Purified human topoisomerase II α was purchased from Professor Neil Osheroff (Vanderbilt University—Nashville, Tenn., USA).
The pUC18 (Stratagene) plasmid was introduced into Escherichia coil XL-1 (Stratagene) and purified with the HiSpeed Plasmid Purification kit (Qiagen) according to the manufacturer instructions. The purity of the DNA preparations was evaluated spectrophotometrically (OD260/OD280 ratio) and by agarose gel.
Preparation of the Malachite Green Reagent:
Three volumes of 0.045% malachite green (Sigma, catalog no. M-9636) diluted in water are mixed for 20 min at room temperature with one volume of 4.2% ammonium molybdate (Axon Lab AG, catalog no. A-2246) diluted in 4 N HCl. After mixing, Triton X-100 (Merck, catalog no. 1.12298) is added to a final concentration of 0.01%. The solution is filtered at 0.2 μm and stored at room temperature in the dark.
ATP hydrolysis was monitored by measuring the production of inorganic phosphate released during the catalytic cycle of topoisomerase II α with acidic molybdate and malachite green (Lanzetta,et al., An improved assay for nanomole amounts of inorganic phosphate, Anal Biochem 1979;100:95-7). Briefly, human topoisomerase II α is pre-incubated at 37° C. for 10 min in 90 μl reaction buffer (10 mM Tris.HCl pH 7.9, 175 mM KCl, 1 mM EDTA, 2 mM DTT, 5 mM MgCl2, 2.5% glycerol) in the presence of the indicated amount of pUC18 and DMSO in F96 maxisorp Nunclmmuno plates (Nunc). The reaction is initiated by the addition of 10 μl ATP at the indicated concentrations and is carried out for 30 min at 37° C. under constant agitation. The reaction is stopped by the addition of 200 μl molybdate/malachite green solution and the absorbance is immediately measured at 630 nm. The OD630 value is measured in the absence of protein for each ATP concentration (background) is subtracted from the value obtained in the presence of enzyme. A standard curve with inorganic phosphate is used to determine the amount of inorganic phosphate produced during the reaction and to ensure that the measures are in the linear range of the assay. The kinetic parameters of the enzymes are determined from measurements (at least in duplicate) of the initial rates at different ATP concentrations. The data are analyzed with GraFit (Erithacus Software).
The compounds are tested at 10 μM of concentration to determine their inhibition potential given % of inhibition of the TOPO II ATPase activity.
For the determination of the IC50, the procedure is repeated for different concentrations of test compound selected to cover the range of 0% to 100% inhibition and the concentration at which 50% inhibition of topoisomerase II occurs (IC50) for each compound is determined from concentration-inhibition curves in a conventional manner.

inhibition at 10 µM [%] | SMILES
< 50 | C=CCc1nc2c(NC(C)(C)C)nc(Nc3ccc4ccccc4c3)nc2[nH]1 [Example 71, 8-Allyl-N*6*-tert-butyl-N*2*-naphthalen-2-yl-9H-purine-2,6-diamine]
< 50 | Cc1nc2c(NC(C)(C)C)nc(Nc3ccc4ccccc4c3)nc2[nH]1 [Example 72, N*6*-tert-Butyl-8-methyl-N*2*-naphthalen-2-yl-9H-purine-2,6-diamine]
< 50 | CCc1nc2c(NC(C)(C)C)nc(Nc3ccc4ccccc4c3)nc2[nH]1 [Example 73, N*6*-tert-Butyl-8-ethyl-N*2*-naphthalen-2-yl-9H-purine-2,6-diamine]
< 50 | CC(C)Cc1nc2c(NC(C)(C)C)nc(Nc3ccc4ccccc4c3)nc2[nH]1 [Example 74, N*6*-tert-Butyl-8-isobutyl-N*2*-naphthalen-2-yl-9H-purine-2,6-diamine]
